Read-outs that look alike come from different tables or passages of the source.
Experiments:
KP1004 KPC-2 [1] = test: Biapenem potentiation (MPC@1), strain KP1004 KPC-2; assay type: cell-based; settings: minimum BLI concentration inhibiting growth with biapenem 1 μg/mL; tested up to 40 μg/mL
Method: (§1) Biapenem was present in the test medium at 1 μg/mL. […] Table 3 summarizes the BLI potency of biapenem potentiation (MPC@1) for two strains overexpressing class A (KPC) and class D (OXA-48) carbapenemases. Biapenem MIC for each strain is also shown.

KP1086 OXA-48 = test: Biapenem potentiation (MPC@1), strain KP1086 OXA-48; assay type: cell-based; settings: minimum BLI concentration inhibiting growth with biapenem 1 μg/mL; tested up to 40 μg/mL
Method: as §1

AB1053 OXA-72 = test: Meropenem potentiation (MPC@8), strain AB1053 OXA-72; assay type: cell-based, Acinetobacter baumannii; settings: minimum BLI concentration inhibiting growth with meropenem 8 μg/mL; tested up to 20 μg/mL
AB1054 OXA-23 = test: Meropenem potentiation (MPC@8), strain AB1054 OXA-23; assay type: cell-based, Acinetobacter baumannii; settings: minimum BLI concentration inhibiting growth with meropenem 8 μg/mL; tested up to 20 μg/mL
[2] = molecular target: T1, purified class A, C and D enzymes (β-lactamases) (Acinetobacter baumannii, UniProt Q9L4P2); test: biochemical; assay type: biochemical; settings: purified OXA-23; nitrocefin (NCF) as reporter substrate
T1 construct: rows headed: Ki (OXA-23, NCF), uM; other: purified OXA-23; nitrocefin (NCF) as reporter substrate
T1 sequence (Q9L4P2 whole entry): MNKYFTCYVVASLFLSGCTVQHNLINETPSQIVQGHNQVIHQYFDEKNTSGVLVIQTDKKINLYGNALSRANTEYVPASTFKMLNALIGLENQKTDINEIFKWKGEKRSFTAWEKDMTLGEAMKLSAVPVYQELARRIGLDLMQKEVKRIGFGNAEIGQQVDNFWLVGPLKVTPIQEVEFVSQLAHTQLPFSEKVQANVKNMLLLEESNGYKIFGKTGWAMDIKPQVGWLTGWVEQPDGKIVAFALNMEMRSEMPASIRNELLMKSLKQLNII

[3] = molecular target: purified class A, C and D enzymes (β-lactamases) (Enterobacter cloacae, UniProt P05364); test: biochemical; assay type: biochemical
Sequence of purified class A, C and D enzymes (β-lactamases) (Enterobacter cloacae, UniProt P05364) (P05364 21-381): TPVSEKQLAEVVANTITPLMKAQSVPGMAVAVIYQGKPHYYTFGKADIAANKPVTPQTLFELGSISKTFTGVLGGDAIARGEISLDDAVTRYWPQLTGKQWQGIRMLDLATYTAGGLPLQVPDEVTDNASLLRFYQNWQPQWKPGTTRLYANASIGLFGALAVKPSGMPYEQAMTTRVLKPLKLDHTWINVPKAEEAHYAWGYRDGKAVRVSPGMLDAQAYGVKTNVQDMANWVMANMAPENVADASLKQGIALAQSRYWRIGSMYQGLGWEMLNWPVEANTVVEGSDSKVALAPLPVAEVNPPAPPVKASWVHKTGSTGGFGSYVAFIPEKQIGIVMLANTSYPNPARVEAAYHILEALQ

[4] = molecular target: purified class A, C and D enzymes (β-lactamases) (Escherichia coli, UniProt Q9L5C7); test: biochemical; assay type: biochemical; settings: purified CTX-M-14; nitrocefin (NCF) as reporter substrate
Sequence of purified class A, C and D enzymes (β-lactamases) (Escherichia coli, UniProt Q9L5C7) (Q9L5C7 entry or part of it): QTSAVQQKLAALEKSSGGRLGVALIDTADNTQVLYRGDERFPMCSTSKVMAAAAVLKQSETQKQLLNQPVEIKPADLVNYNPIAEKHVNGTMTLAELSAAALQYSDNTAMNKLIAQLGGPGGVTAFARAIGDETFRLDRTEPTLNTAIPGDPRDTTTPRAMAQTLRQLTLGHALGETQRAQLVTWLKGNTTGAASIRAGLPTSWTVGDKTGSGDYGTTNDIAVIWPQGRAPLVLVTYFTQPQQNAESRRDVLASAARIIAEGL

[5] = molecular target: purified class A, C and D enzymes (β-lactamases) (Klebsiella pneumoniae, UniProt Q6XEC0); test: biochemical; assay type: biochemical; settings: purified OXA-48; nitrocefin (NCF) as reporter substrate
[6] = molecular target: purified class A, C and D enzymes (β-lactamases) (Klebsiella pneumoniae, UniProt Q9F663); test: biochemical; assay type: biochemical; settings: purified KPC-2; nitrocefin (NCF) as reporter substrate
[7] = molecular target: T2, purified class A, C and D enzymes (β-lactamases) (Pseudomonas aeruginosa, UniProt P24735); test: biochemical; assay type: biochemical
T2 construct: rows headed: Ki (Pa-AmpC, NCF), uM; other: purified Pa-AmpC; nitrocefin (NCF) as reporter substrate
T2 sequence (P24735 whole entry): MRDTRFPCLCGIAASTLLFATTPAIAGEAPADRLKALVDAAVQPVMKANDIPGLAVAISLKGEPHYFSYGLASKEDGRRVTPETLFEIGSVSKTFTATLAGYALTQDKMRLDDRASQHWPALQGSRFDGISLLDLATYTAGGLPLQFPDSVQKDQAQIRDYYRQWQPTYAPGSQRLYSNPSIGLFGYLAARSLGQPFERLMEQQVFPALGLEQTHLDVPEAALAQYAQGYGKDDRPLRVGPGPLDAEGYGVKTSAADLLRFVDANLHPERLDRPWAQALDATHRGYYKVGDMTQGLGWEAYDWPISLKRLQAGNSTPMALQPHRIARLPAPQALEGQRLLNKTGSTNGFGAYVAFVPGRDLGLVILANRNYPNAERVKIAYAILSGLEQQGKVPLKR

ECL1002 = test: Aztreonam potentiation (MPC@4), strain ECL1002; settings: minimum BLI concentration inhibiting growth with aztreonam 4 μg/mL; tested up to 40 μg/mL
ec308 SHV-5 = test: Aztreonam potentiation (MPC@4), strain ec308 SHV-5; settings: minimum BLI concentration inhibiting growth with aztreonam 4 μg/mL; tested up to 40 μg/mL
ec302 TEM-10 = test: Aztreonam potentiation (MPC@4), strain ec302 TEM-10; settings: minimum BLI concentration inhibiting growth with aztreonam 4 μg/mL; tested up to 40 μg/mL
KP1004 KPC-2 [8] = test: Aztreonam potentiation (MPC@4), strain KP1004 KPC-2; settings: minimum BLI concentration inhibiting growth with aztreonam 4 μg/mL; tested up to 40 μg/mL
EC1010 CMY-6 = test: Aztreonam potentiation (MPC@4), strain EC1010 CMY-6; settings: minimum BLI concentration inhibiting growth with aztreonam 4 μg/mL; tested up to 40 μg/mL
KP1010 SHV-12 = test: Aztreonam potentiation (MPC@4), strain KP1010 SHV-12; settings: minimum BLI concentration inhibiting growth with aztreonam 4 μg/mL; tested up to 40 μg/mL
KP1009 CTX-M-15 = test: Aztreonam potentiation (MPC@4), strain KP1009 CTX-M-15; settings: minimum BLI concentration inhibiting growth with aztreonam 4 μg/mL; tested up to 40 μg/mL
KP1005 CTX-M-14 = test: Tigemonam potentiation (MPC@4), strain KP1005 CTX-M-14; settings: minimum BLI concentration inhibiting growth with tigemonam 4 μg/mL; tested up to 40 μg/mL

Row | SMILES | BPM MPC1 KP1004 KPC-2 (KP1004 KPC-2 [1]) | BPM MPC1 OXA-48 KP1086 (KP1086 OXA-48) | MPM MPC8 AB1053 OXA-72 (AB1053 OXA-72) | MPM MPC8 AB1054 OXA-23 (AB1054 OXA-23) | Ki [2] | Ki (P99, NCF), uM [3] | Ki (CTX-M-14, NCF), uM [4] | Ki (OXA-48, NCF), uM [5] | Ki (KPC-2, NCF), uM [6] | Ki [7] | AZT MPC4 ECL1002 (ECL1002) | AZT MPC4 SHV-5 ec308 (ec308 SHV-5) | AZT MPC4 TEM-10 ec302 (ec302 TEM-10) | AZT MPC4 KPC-2 KP1004 (KP1004 KPC-2 [8]) | AZT MPC4 CMY-6 EC1010 (EC1010 CMY-6) | AZT MPC4 SHV-12 KP1010 (KP1010 SHV-12) | AZT MPC4 CTX-M-15 KP1009 (KP1009 CTX-M-15) | TIG MPC4 CTX-M-14 KP1005 (KP1005 CTX-M-14) | Ki (P99, NCF), uM ([3]; purified P99, nitrocefin (NCF) as reporter substrate) | Ki ([7]; purified Pa-AmpC, nitrocefin (NCF) as reporter substrate, read-out: Ki (Pa-AmpC, NCF))
1 | NCCc1cn(-c2ccc3c(c2C(=O)O)O[B-](O)(O)CC3)nn1 [Compound 14, Disodium; 8-[4-(2-aminoethyl)triazol-1-yl]-4,4-dihydroxy-5-oxa-4-boranuidabicyclo[4.4.0]deca-1(6),7,9-triene-7-carboxylate] | X (X = MPC@1 ≤ 5 μg/mL) | X (X = MPC@1 ≤ 5 μg/mL) | X (X = MPC@1 ≤ 5 μg/mL) | X (X = MPC@1 ≤ 5 μg/mL) | < 100 nM | Y (key: X = Ki ≤ 0.1 μM; Y = 0.1 μM < Ki ≤ 1 μM; Z = Ki > 1 μM) | X (X = Ki ≤ 0.1 μM) | X (X = Ki ≤ 0.1 μM) | X (X = Ki ≤ 0.1 μM) | > 1000 nM | Z (Z = MPC@4 > 20 μg/mL) | Y (Y = 5 μg/mL < MPC@4 ≤ 20 μg/mL) | Y (Y = 5 μg/mL < MPC@4 ≤ 20 μg/mL) | X (X = MPC@4 ≤ 5 μg/mL) | Y (Y = 5 μg/mL < MPC@4 ≤ 20 μg/mL) | X (X = MPC@4 ≤ 5 μg/mL) | Y (Y = 5 μg/mL < MPC@4 ≤ 20 μg/mL) | Z (Z = MPC@4 > 20 μg/mL) |  | 
2 | O=C([O-])c1c(CSc2nncs2)ccc2c1O[B-](O)(O)CC2.[Na+].[Na+] [Compound 20, Disodium; 4,4-dihydroxy-8-(1,3,4-thiadiazol-2-ylsulfanylmethyl)-5-oxa-4-boranuidabicyclo[4.4.0]deca-1(6),7,9-triene-7-carboxylate] | X (X = MPC@1 ≤ 5 μg/mL) | X (X = MPC@1 ≤ 5 μg/mL) | Y (Y = 5 μg/mL < MPC@1 ≤ 20 μg/mL) | Y (Y = 5 μg/mL < MPC@1 ≤ 20 μg/mL) | < 100 nM | X (key: X = Ki ≤ 0.1 μM; Y = 0.1 μM < Ki ≤ 1 μM; Z = Ki > 1 μM) | X (X = Ki ≤ 0.1 μM) | X (X = Ki ≤ 0.1 μM) | X (X = Ki ≤ 0.1 μM) | < 100 nM | X (X = MPC@4 ≤ 5 μg/mL) | X (X = MPC@4 ≤ 5 μg/mL) | X (X = MPC@4 ≤ 5 μg/mL) | X (X = MPC@4 ≤ 5 μg/mL) | X (X = MPC@4 ≤ 5 μg/mL) | X (X = MPC@4 ≤ 5 μg/mL) | X (X = MPC@4 ≤ 5 μg/mL) | Y (Y = 5 μg/mL < MPC@4 ≤ 20 μg/mL) |  | 
3 | O=C([O-])c1c(CO)ccc2c1O[B-](O)(O)CC2.[Na+].[Na+] [Compound 49, Disodium; 4,4-dihydroxy-8-(hydroxymethyl)-5-oxa-4-boranuidabicyclo[4.4.0]deca-1(6),7,9-triene-7-carboxylate] | X (X = MPC@1 ≤ 5 μg/mL) | X (X = MPC@1 ≤ 5 μg/mL) | Y (Y = 5 μg/mL < MPC@1 ≤ 20 μg/mL) | Y (Y = 5 μg/mL < MPC@1 ≤ 20 μg/mL) | < 100 nM | X (key: X = Ki ≤ 0.1 μM; Y = 0.1 μM < Ki ≤ 1 μM; Z = Ki > 1 μM) | X (X = Ki ≤ 0.1 μM) | X (X = Ki ≤ 0.1 μM) | X (X = Ki ≤ 0.1 μM) | < 100 nM | X (X = MPC@4 ≤ 5 μg/mL) | X (X = MPC@4 ≤ 5 μg/mL) | X (X = MPC@4 ≤ 5 μg/mL) | X (X = MPC@4 ≤ 5 μg/mL) | X (X = MPC@4 ≤ 5 μg/mL) | X (X = MPC@4 ≤ 5 μg/mL) | X (X = MPC@4 ≤ 5 μg/mL) | X (X = MPC@4 ≤ 5 μg/mL) |  | 
4 | O=C(O)c1c(F)ccc2c1OB(O)COC2 [Compound 58, 8-Fluoro-2-hydroxy-3,5-dihydro-1,4,2-benzodioxaborepine-9-carboxylic acid] | X (X = MPC@1 ≤ 5 μg/mL) | X (X = MPC@1 ≤ 5 μg/mL) | Z (Z = MPC@1 > 20 μg/mL) | Z (Z = MPC@1 > 20 μg/mL) | 100 to 1000 nM |  | X (X = Ki ≤ 0.1 μM) | X (X = Ki ≤ 0.1 μM) | X (X = Ki ≤ 0.1 μM) |  | X (X = MPC@4 ≤ 5 μg/mL) | Z (Z = MPC@4 > 20 μg/mL) | Z (Z = MPC@4 > 20 μg/mL) | X (X = MPC@4 ≤ 5 μg/mL) | X (X = MPC@4 ≤ 5 μg/mL) | Y (Y = 5 μg/mL < MPC@4 ≤ 20 μg/mL) | Z (Z = MPC@4 > 20 μg/mL) | Z (Z = MPC@4 > 20 μg/mL) | X (X = Ki ≤ 0.1 μM) | < 100 nM
5 | COc1ccc2c(c1C(=O)[O-])O[B-](O)(O)[C@@H](C)C2.[Na+].[Na+] [Compound 11, Disodium; (3S)-4,4-dihydroxy-8-methoxy-3-methyl-5-oxa-4-boranuidabicyclo[4.4.0]deca-1(6),7,9-triene-7-carboxylate] | X (X = MPC@1 ≤ 5 μg/mL) | Y (Y = 5 μg/mL < MPC@1 ≤ 20 μg/mL) | X (X = MPC@1 ≤ 5 μg/mL) | Y (Y = 5 μg/mL < MPC@1 ≤ 20 μg/mL) | < 100 nM | X (key: X = Ki ≤ 0.1 μM; Y = 0.1 μM < Ki ≤ 1 μM; Z = Ki > 1 μM) | X (X = Ki ≤ 0.1 μM) | X (X = Ki ≤ 0.1 μM) | X (X = Ki ≤ 0.1 μM) | < 100 nM | Y (Y = 5 μg/mL < MPC@4 ≤ 20 μg/mL) | Y (Y = 5 μg/mL < MPC@4 ≤ 20 μg/mL) | Y (Y = 5 μg/mL < MPC@4 ≤ 20 μg/mL) | Y (Y = 5 μg/mL < MPC@4 ≤ 20 μg/mL) | X (X = MPC@4 ≤ 5 μg/mL) | Y (Y = 5 μg/mL < MPC@4 ≤ 20 μg/mL) | Y (Y = 5 μg/mL < MPC@4 ≤ 20 μg/mL) | Z (Z = MPC@4 > 20 μg/mL) |  | 

Reference: US10618918B2, “Substituted boronic acids as antimicrobials” (priority 2015, dated 2020)
